The source of these data is patent US6699861B1, “Anti-quinazoline compounds” (Cancer Research Technology Limited, priority 1999, dated 2004).

Each structure is given as a SMILES string. Values joined by “and” are separate entries in the source; they are usually repeats but may differ in a detail not shown here. Equal entries are not always repeated. Where two headings read alike, the source gives them in different places.

In data set [1] the test system is W1L2 human lymphoblastoid cells. Nature of the data set: Growth inhibition of W1L2 cells. In kind it is cell-based.
A further data set deals with W1L2 cells. Nature of the data set: Growth inhibition of W1L2 in presence of folate metabolites (dThd/HX). The settings on record: Homo sapiens; in the presence of 10 μM thymidine (dThd) and 50 μM hypoxantine (HX); read-out: Inhibition of Cell Growth IC50, W1L2 + dThd/HX (C). In kind it is cell-based, human. The method, then: Growth inhibition assays as described above were performed in W1L2 cells where compounds were incubated in the presence of 10 μM thymidine (dThd) and 50 μM hypoxantine (HX) (purchased from Sigma Chemical Co.).

For a further data set, the system named is W1L2:C1 cells. Nature of the data set: Growth inhibition of W1L2:C1 cells (elevated TS). The format is cell-based, human. Conditions: read-out: Inhibition of Cell Growth IC50, W1L2:C1 (B). How it is done:
(§1) W1L2 human lymphoblastoid, W1L2:C1 (elevated TS; O'Connor et al, Cancer Res, 52, 1137-1143 (1992)) and L1210 mouse leukaemia cells were cultured in suspension and A2780, PXN94, 41M, HX62, SKOV3 (human ovarian carcinoma), MCF-7 (human breast carcinoma), HT29 and SW480 (human colon carcinoma) cell lines were grown as monolayers as described in Jackman et al, Cancer Res, 50, 5212-5218 (1990) and Jackman et al, Br. J. Cancer, 71, 914-924 (1995).
(§2) Growth inhibition studies with suspension cells were performed as described in Jackman et al, Cancer Res, 50, 5212-5218 (1990). Activity against the adherent cell lines was assessed by MTT assay (Twentyman et al, Br. J. Cancer, 56, 279-285 (1987)) where cells were seeded in 96-well plates at 1000-3000 cells per well, incubated overnight and then exposed to the appropriate drug concentrations for 96-120 h.

A further data set concerns W1L2:R865 cell line. Kind of data set: Growth inhibition of W1L2:R865 cells (acquired resistance to CB 30865). The format is cell-based, human. The method, then: A cell line was raised with acquired resistance to CB 30865, denoted W1L2:R865, by stepwise selection over ˜9 months.
The generated W1L2:R865 cell line was routinely cultured in 0.03 μm CB 30865 under the same conditions as W1L2 cells, with cells being grown in the absence of CB 30865 for ˜2 weeks before an experiment.
The activity of compounds against W1L2:R865 cells was determined within parallel experiments by 72 h growth inhibition assay (Coulter counts). CB 30865 was included in every experiment as an internal control.

In data set [2] the target is mouse thymidylate synthase (TS) (Mus musculus, UniProt P07607). Nature of the data set: Inhibition of L1210 thymidylate synthase (TS).
Sequence of mouse thymidylate synthase (TS) (P07607 whole entry): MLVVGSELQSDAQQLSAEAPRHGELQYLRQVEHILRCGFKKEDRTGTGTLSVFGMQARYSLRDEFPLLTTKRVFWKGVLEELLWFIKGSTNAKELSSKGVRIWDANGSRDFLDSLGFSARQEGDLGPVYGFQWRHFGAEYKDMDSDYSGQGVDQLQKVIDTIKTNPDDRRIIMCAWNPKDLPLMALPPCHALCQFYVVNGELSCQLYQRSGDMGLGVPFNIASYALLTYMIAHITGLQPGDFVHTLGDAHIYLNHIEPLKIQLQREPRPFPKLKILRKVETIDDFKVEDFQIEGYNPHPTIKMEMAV
The conditions of data set [3]: background statement on the known compound; cited from earlier work.
Data set [4] deals with CH1 ovarian carcinoma cell line. Kind of data set: Hollow fibre assay, CH1 cells. The format is in vivo, nude mice. The settings on record: for O.D. as % control: harvested day 5. How it is done:
(§3) As adopted by the NCI, the hollow fibre assay (Hollingshead et al. 1995, Life Sciences, 57: 13 1-141) was used as an initial means of assessing the in vivo antitumour activity of CB 300919.
(§4) The hollow fibre assay was performed using the CH1 ovarian carcinoma cell line and the HT29 colon line.
(§5) Results are expressed as a % Treated/Control (T/C).

For the next data set, the system named is HT29 colon line. Nature of the data set: Hollow fibre assay, HT29 cells. In kind it is in vivo, nude mice. The settings on record: for O.D. as % control: harvested day 5. How it is done: as §3, §4, §5
The next data set in a line: MTD in DBA2 mice. The settings on record: mouse, in vivo. How it is done:
MTD in DBA2 mice ˜1.5 mg/kg/d×3 days.

For a further data set, the system named is HT29 cells. Nature of the data set: In vitro sensitivity of HT29 cells compared with CH1 cells. The format is cell-based, human. The method, then: as §1, §2
Data set [5] is described as follows: Tolerability (weight loss, deaths, MTD) in nude mice.
Protocol: One day later (day 1), CB 300919 was administered by ip injection, daily for 3 days (days 1-3).
Mice injected with CB 300919 i.p. on days 1-3.
Where [6] appears, read: Homo sapiens, Lymphoblastoid cell, W1L2 suspension cells, read-out: Inhibition of Cell Growth IC50, W1L2 (B).
Where [7] appears, read: 0.25 mg/kg/d i.p. daily x 3 days.
Where [8] appears, read: 0.50 mg/kg/d i.p. daily x 3 days.
The mark [9] stands for this setting: 0.75 mg/kg/d i.p. daily x 3 days.

On to `C#CCN(Cc1cc2c(=O)n(C)c(CN(CC)CC)nc2cc1Cl)c1ccc(C(=O)NCc2cccnc2)cc1` [CB300922, 4-[N-[2-Diethylaminomethyl-7-chloro-3-methyl-4-oxo-3,4-dihydroquinazolin-6-ylmethyl]-N-(prop-2-ynyl)amino]-N-(3-pyridylmethyl)benzamide], for which the melting point is 180 to 182 °C. For the same compound, in data set [1] (setting [6]), the IC50 worked out at 0.71 ± 0.0076 nM. Further, the IC50 in the data set with W1L2 cells is 0.73 ± 0.05 nM. Also, the IC50 with W1L2:C1 cells (Homo sapiens) amounted to 0.42 nM. In the data set with W1L2:R865 cell line (Homo sapiens, 72 h, read-out: Inhibition of Cell Growth IC50, W1L2:R865 (D), 72 h growth inhibition assay (Coulter counts)), the IC50 is over 50000 nM. In addition, in data set [2], the “Inhibition of L1210 TS (A) IRP* (inverse relative potency)” value is listed as over 2500.
As for `C#CCN(Cc1cc2c(=O)[nH]c(C)nc2cc1Br)c1ccc(C(=O)NCc2cccnc2)cc1` [CB30865, 4-[N-[7-bromo-2-methyl-4-oxo-3,4-dihydroquinazolin-6-ylmethyl]-N-(prop-2-ynyl)amino]-N-(3-pyridylmethyl)benzamide, reference compound], the IC50 in data set [1] (setting [6]) stood at 2.8 ± 0.5 nM; in [1] (Homo sapiens, Lymphoblastoid cell, W1L2 cells, 72 h, read-out: 72 h IC50) it was 2.8 nM; in the data set on W1L2 cells, 2.2 ± 0.82 nM; in the data set with W1L2:C1 cells (Homo sapiens), 2.3 ± 0.15 nM; with W1L2:R865 cell line (Homo sapiens, 72 h growth inhibition assay (Coulter counts), read-out: Inhibition of Cell Growth IC50, W1L2:R865 (D)) it was 610 nM. Moreover, the water-solubility entry in [3] is reported as “very low water-solubility”.
In the case of `C#CCN(Cc1cc2c(=O)n(C)c(CN3CCN(C)CC3)nc2cc1Cl)c1ccc(C(=O)NCc2cccnc2)cc1` [CB300919, 4-[N-[7-Chloro-3-methyl-2-(4-methyl-piperazin-1-yl)methyl-4-oxo-3,4-dihydroquinazolin-6-ylmethyl]-N-(prop-2-ynyl)amino]-N-(3-pyridylmethyl)benzamide], the IC50 in [1] (W1L2 suspension cells, read-out: Inhibition of Cell Growth IC50, W1L2 (B)) is 0.49 ± 0.24 nM; with W1L2 cells, 0.32 nM; with W1L2:C1 cells, 0.44 nM and 0.28 nM; in the data set on W1L2:R865 cell line (read-out: Inhibition of Cell Growth IC50, W1L2:R865 (D), 72 h growth inhibition assay (Coulter counts)) it was 13000 ± 4500 nM. For the same compound, the “optical density (% Treated/Control)” value in [4] (CH1 cells in the fibres, all doses given IP (0.25-0.75 mg/kg/day×3 days)) was under 15%. The “O.D. as % control” value in [4] (CH1 ovarian, 0.25 mg/kg/d i.p. daily x 3 days) was determined as 13%; in [4] (CH1 ovarian, 0.50 mg/kg/d i.p. daily x 3 days), 13%; in [4] (CH1 ovarian, 0.75 mg/kg/d i.p. daily x 3 days), 13%; with HT29 colon line (setting [7]), 92%; in the data set on HT29 colon line (setting [8]), 34%; in the data set on HT29 colon line (setting [9]) it was 29%. Moreover, the “Dose to give 50% inhibition of tumour growth” value in data set [4] (CH1 ovarian, i.p. daily x 3 days) was under 0.25 mg/kg/day; with HT29 colon line (i.p. daily x 3 days), 0.4 mg/kg/day. The MTD at 3 days in the data set “MTD in DBA2 mice” is about 1.5 mg/kg/day; in [5] (nude, mouse, in vivo, intraperitoneal), 0.5 to 0.75 mg/kg/day. In the data set with HT29 cells, the “lower sensitivity of HT29 cells in vitro” value is reported as about 10 fold. In addition, in data set [2], the “Inhibition of L1210 TS (A) IRP* (inverse relative potency)” value is listed as over 2500. Also, the “Weight loss (up to day 5)” value in data set [5] (setting [7]) was “No sig. wt. loss”; in data set [5] (setting [8]) it was 0-19% wt. loss; in data set [5] (setting [9]), 9-22% wt. loss. Further, in [5] (0.75 mg/kg/d i.p. daily x 3 days, d4, 22% wt. loss), the “Comments: mice killed” value is recorded as “⅓ killed (d4; 22% wt. loss”.

Usually melting point stands for the temperature, or range, at which the solid turns liquid.
